Experimental data: patent US12582693B2, “Glutathione trisulfide (GSSSG) in neuroprotection” (The General Hospital Corporation, priority 2020, dated 2026)

Key:
SH-SY5Y cells = assay: MPP+-induced SH-SY5Y cell death, cell viability by crystal violet assay; assay type: cell-based; settings: MPP+ 2 mM, DMEM/F12 (20% FBS), 37° C., 24 h
Description: The effects of GSSSG on 1-methyl-4-phenylpyridinium (MPP+)-induced neuronal (SH-SY5Y cell) death were evaluated. MPP+-poisoning is an in vitro model of Parkinson's disease.
SH-SY5Y cells were incubated with or without MPP+ (2 mM) in DMEM/F12 (20% FBS) with or without drugs at 37° C. for 24 h. Cell viability was measured using the crystal violet assay.

mice subjected to SCI = assay: Murine model of spinal cord ischemia (SCI) with delayed paraplegia; motor function by Basso Mouse Scale and survival after preconditioning; assay type: in vivo; settings: preconditioning 200 mg/kg IP daily for 4 days in DMSO, vs DMSO alone
Description: Briefly, under anesthesia and mechanical ventilation via endotracheal intubation, SCI was induced by placing the first clip on the aortic arch between the left common carotid artery and the left subclavian artery and the second clip on the origin of the left subclavian artery. The completeness of the occlusion was ascertained by an immediate and sustained loss of any detectable pulse pressure in the femoral artery pressure tracing. After 5 min of ischemia, the clips were removed, and the chest was closed in layers. At 10 minutes of reperfusion, the arterial catheter was removed, incisions were closed, and animals were allowed to recover from anesthesia. Temperature of erector spinae muscle was monitored and maintained at 37.5° C. during whole surgery until recovery from anesthesia. In sham-operated mice, whole surgical procedure was performed as described, but no clips were applied. Motor function was quantified serially at pre-SCI, 24, 48, and 72 h after spinal cord ischemia by the Basso Mouse Scale (BMS) (Basso et al., 2006; Kakinohana et al., 2011). The maximum deficit is indicated by a score of 0. Although BMS score<6 (0 to 5) indicates paraplegia, BMS score>6 (6 to 9) indicates ability to walk.
To examine preventive effects of GSSSG against neurofunctional deficit after SCI, mice were subjected to preconditioning with GSSSG treatment before induction of SCI. […]

SMILES | Protection from MPP+-induced cell death (cell viability) (SH-SY5Y cells) | Motor function (Basso Mouse Scale, BMS) / paraplegia after SCI (mice subjected to SCI; SCI 24 h after last administration, BMS up to 72 h) | Survival rate of mice after SCI (mice subjected to SCI)
[Na+].[Na+].[S-2] [Na2S, reference compound] | but not Na2S, protected | – | –
N[C@@H](CCC(=O)N[C@@H](CSSSC[C@H](NC(=O)CC[C@H](N)C(=O)O)C(=O)NCC(=O)O)C(=O)NCC(=O)O)C(=O)O [GSSSG, Glutathione trisulfide] | protective effect | prevented motor functional deficit and paraplegia | did not change survival rate
